Measured values: patent publication US20170049782A1 (SK CHEMICALS CO., LTD., priority 2014, published 2017)
Where two headings read alike, the source gives them in different places.

Key:
[1] = Solubility / dissolved fraction of active ingredient (I) in water (background); assay type: physicochemical
Description: At single administration and repetitive administration, there is a difference in blood concentration depending on whether taking food or not, and food intake is blamed for causing the difference (Xia et al., British Journal of Clinical Pharmacology, 2009, 68:1, p 77-88). This is a reason for decrease of drug efficacy to patients taking food irregularly, and a negative cause, which may make patients feel uncomfortable for taking drug. […] Thus, its bioavailability reach to 100% when it is administered with food because residual insoluble drugs are absorbed by oil content present in the food and a surfactant such as bile acid secreted in the body (Samama et al. Thrombosis Journal 2013, 11:11, p 1-7).

[2] = cited from earlier work

- drug dissolved in dissolution solution ([1]; 10 mg in 900 ml): ≥ 90%
- drug dissolved in dissolution solution ([1]; 20 mg in 900 ml): 50%
Compound: O=C(NC[C@H]1CN(c2ccc(N3CCOCC3=O)cc2)C(=O)O1)c1ccc(Cl)s1 [active ingredient (I)]
- bioavailability ([2]; 10 mg, regardless of a meal): 100%
- bioavailability ([2]; 20 mg, administered before a meal / under fasted condition): about 66%
- bioavailability ([2]; 20 mg, administered with food): 100%
